According to article PMC7897990, “TriTOX: A novel Trichomonas vaginalis assay platform for high-throughput screening of compound libraries” (International Journal for Parasitology: Drugs and Drug …, 2021):
Where two headings read alike, the source gives them in different places.

Tested on: Trichomonas vaginalis G3 trophozoites
Assay: microbe, parasite or virus in culture
Conditions: 48 h
[1] = read-out: T.vaginalis_%inb_Rep1
[2] = read-out: T.vaginalis_%inb_Rep2

Row | Structure (SMILES) | inhibition of growth at 1 µg/mL [1] [%] | inhibition of growth at 1 µg/mL [2] [%]
1 | COC(=O)[C@@H]1c2cc3c(c(O)c2[C@@H](O[C@@H]2O[C@@H](C)[C@H](OC)[C@@](C)(OC)[C@H]2OC)C[C@]1(C)O)C(=O)c1c(O)cc2c(c1C3=O)O[C@@H]1O[C@@]2(C)[C@H](O)[C@@H](N(C)C)[C@@H]1O [Nogalamycin] | 12.8 | 13.3
2 | CO[C@@H]1[C@@H](OC(N)=O)[C@@H](O)[C@H](Oc2ccc3c(O)c(NC(=O)c4ccc(O)c(CC=C(C)C)c4)c(=O)oc3c2C)OC1(C)C [Novobiocin] | 4.51 | 4.68
3 | CO[C@H]1C[C@H](O[C@H]2[C@H](C)[C@@H](O[C@@H]3O[C@H](C)C[C@H](N(C)C)[C@H]3O)[C@@H](C)C[C@@]3(CO3)C(=O)[C@H](C)[C@@H](O)[C@@H](C)[C@@H](C)OC(=O)[C@@H]2C)O[C@@H](C)[C@@H]1O [Oleandomycin] | 13.2 | 4.75
4 | Cc1cc(O)cc(O)c1C(=O)O [Orsellinic acid] | 12.5 | 14.9
5 | CC1=C\[C@@H](O)CC(=O)Cc2nc(co2)C(=O)N2CCC=C2C(=O)O[C@H](C(C)C)[C@H](C)/C=C/C(=O)NC\C=C\1 [Ostreogrycin A] | 13.9 | 14.5
6 | CN(C)[C@@H]1C(O)=C(C(N)=O)C(=O)[C@@]2(O)C(O)=C3C(=O)c4c(O)cccc4[C@@](C)(O)[C@H]3[C@H](O)[C@@H]12 [Oxytetracycline] | 13.3 | 10.7
7 | OC[C@H]1O[C@@H](n2cnc3c2NC=NC[C@H]3O)C[C@@H]1O [Pentostatin] | 12.7 | 15.8
8 | Oc1cc(O)cc(O)c1 [Phloroglucinol] | 13.9 | 12.3
9 | C[C@@H]1C/C=C/C=C/C=C/C=C/[C@H](O[C@@H]2O[C@H](C)[C@@H](O)[C@H](N)[C@@H]2O)C[C@@H]2O[C@](O)(C[C@@H](O)C[C@H]3O[C@@H]3/C=C/C(=O)O1)C[C@H](O)[C@H]2C(=O)O [Pimaricin] | 10.4 | 13.7
10 | CC[C@@H]1/C=C(\C)C[C@H](C)C[C@H](OC)[C@H]2O[C@@](O)(C(=O)C(=O)N3CCCC[C@H]3C(=O)O[C@H](/C(C)=C/[C@@H]3CC[C@H](Cl)[C@H](OC)C3)[C@H](C)[C@@H](O)CC1=O)[C@H](C)C[C@@H]2OC [Pimecrolimus] | 13 | 14
11 | CC[C@H](C)C(=O)O[C@H]1C[C@H](O)C=C2C=C[C@H](C)[C@H](CC[C@@H](O)C[C@@H](O)CC(=O)O)[C@H]21 [Pravastatin sodium] | 13 | 13.6
12 | C/C(=C\C(=O)OCCCCCCCCC(=O)O)C[C@@H]1OC[C@H](C[C@@H]2O[C@H]2[C@@H](C)[C@H](C)O)[C@@H](O)[C@H]1O [Pseudomonic acid] | 11.5 | 11.7
13 | COc1ccc(C[C@H](N)C(=O)N[C@H]2[C@@H](O)[C@H](n3cnc4c(N(C)C)ncnc43)O[C@@H]2CO)cc1 [Puromycin] | 12 | 10.7
14 | O=C(O)c1ccc[nH]1 [Pyrrole-2-carboxylic acid] | 17.3 | 11.6
15 | CN(C)c1cc(NC(=O)CNC(C)(C)C)c(O)c2c1C[C@H]1C[C@H]3[C@H](N(C)C)C(O)=C(C(N)=O)C(=O)[C@@]3(O)C(O)=C1C2=O [Tigecycline] | 10 | 5.97
16 | CC[C@H]1OC(=O)C[C@@H](O)[C@H](C)[C@@H](O[C@@H]2O[C@H](C)[C@@H](O)[C@H](N(C)C)[C@H]2O)[C@@H](CCN2CCCCC2)C[C@@H](C)C(=O)/C=C/C(C)=C/[C@@H]1CN1CCCCC1 [Tildipirosin] | 7.13 | 12.7
